According to publication PMC10322960 (European Journal of Drug Metabolism and Pharmacokinetics, 2023):

Experiments:
OAT1 [1] = target: T1, OAT1 (Homo sapiens, UniProt Q4U2R8); test: OAT1 uptake inhibition assay; format: in vitro ADME; details: 0.63–40 μM
T1 sequence (Q4U2R8 1-563): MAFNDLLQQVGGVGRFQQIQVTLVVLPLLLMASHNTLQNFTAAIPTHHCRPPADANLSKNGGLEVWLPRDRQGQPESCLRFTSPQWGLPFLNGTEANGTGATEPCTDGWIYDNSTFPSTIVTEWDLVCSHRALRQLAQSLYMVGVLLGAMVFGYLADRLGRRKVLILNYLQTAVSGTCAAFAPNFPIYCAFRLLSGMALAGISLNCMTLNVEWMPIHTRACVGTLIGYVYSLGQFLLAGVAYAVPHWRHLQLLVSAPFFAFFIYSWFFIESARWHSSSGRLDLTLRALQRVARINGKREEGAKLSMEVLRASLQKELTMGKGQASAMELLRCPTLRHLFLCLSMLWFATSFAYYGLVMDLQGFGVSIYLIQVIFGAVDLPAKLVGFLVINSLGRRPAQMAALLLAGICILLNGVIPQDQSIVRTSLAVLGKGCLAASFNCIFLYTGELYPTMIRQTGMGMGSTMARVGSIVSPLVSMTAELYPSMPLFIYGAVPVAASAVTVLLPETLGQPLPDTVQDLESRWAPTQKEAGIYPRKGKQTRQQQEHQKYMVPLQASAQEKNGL

[2] = tested on: CYP1A2, CYP2A6, CYP2B6, CYP2C8, CYP2C9, CYP2C19, CYP2D6, CYP2E1, and CYP4A11; test: Recombinant CYP incubation; format: in vitro ADME, human; details: 3 µm ocedurenone, NADPH, 60 min
OAT3 = target: T2, OAT3 (Homo sapiens, UniProt Q8TCC7); test: OAT3 uptake substrate assay; format: in vitro ADME
T2 sequence (Q8TCC7 1-542): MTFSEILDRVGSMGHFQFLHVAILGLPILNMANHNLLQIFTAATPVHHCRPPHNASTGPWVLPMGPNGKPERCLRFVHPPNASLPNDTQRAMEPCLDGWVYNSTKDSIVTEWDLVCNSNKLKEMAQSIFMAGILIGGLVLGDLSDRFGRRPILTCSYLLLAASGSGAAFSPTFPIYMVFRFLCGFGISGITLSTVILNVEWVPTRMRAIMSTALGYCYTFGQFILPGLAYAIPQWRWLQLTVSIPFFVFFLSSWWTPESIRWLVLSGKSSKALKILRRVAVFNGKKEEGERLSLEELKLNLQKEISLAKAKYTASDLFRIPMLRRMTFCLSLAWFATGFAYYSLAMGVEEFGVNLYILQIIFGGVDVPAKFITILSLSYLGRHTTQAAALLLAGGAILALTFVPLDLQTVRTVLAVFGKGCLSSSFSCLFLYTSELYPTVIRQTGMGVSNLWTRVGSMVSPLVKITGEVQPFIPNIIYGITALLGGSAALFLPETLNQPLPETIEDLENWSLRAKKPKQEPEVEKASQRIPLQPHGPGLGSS

OATP1B1 = target: T3, OATP1B1 (Homo sapiens, UniProt Q9Y6L6); test: OATP1B1 uptake inhibition assay; format: in vitro ADME
T3 sequence (Q9Y6L6 1-691): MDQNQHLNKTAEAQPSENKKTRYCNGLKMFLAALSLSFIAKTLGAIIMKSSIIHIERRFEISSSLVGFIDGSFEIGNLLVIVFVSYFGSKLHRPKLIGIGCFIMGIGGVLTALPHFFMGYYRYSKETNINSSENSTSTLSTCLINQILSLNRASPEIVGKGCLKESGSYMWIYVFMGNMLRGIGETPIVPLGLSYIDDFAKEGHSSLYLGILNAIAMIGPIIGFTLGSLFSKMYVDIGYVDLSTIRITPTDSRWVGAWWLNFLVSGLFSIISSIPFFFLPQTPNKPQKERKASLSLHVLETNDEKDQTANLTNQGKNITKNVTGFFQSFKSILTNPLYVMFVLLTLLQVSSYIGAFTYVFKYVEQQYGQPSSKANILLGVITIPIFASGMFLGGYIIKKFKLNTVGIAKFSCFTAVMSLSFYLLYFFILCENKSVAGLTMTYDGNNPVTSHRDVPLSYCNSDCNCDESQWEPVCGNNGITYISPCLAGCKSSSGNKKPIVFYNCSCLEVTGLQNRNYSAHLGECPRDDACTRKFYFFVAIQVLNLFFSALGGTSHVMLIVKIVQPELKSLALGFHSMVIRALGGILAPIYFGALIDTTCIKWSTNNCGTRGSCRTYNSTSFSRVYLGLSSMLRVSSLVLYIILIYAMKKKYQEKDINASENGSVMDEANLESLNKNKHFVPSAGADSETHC

CYP3A4 = CYP3A4 (Homo sapiens, UniProt P08684); format: in vitro ADME; details: 3 µm ocedurenone, NADPH, 60 min
OAT1 [3] = target: T1, OAT1; test: OAT1 uptake substrate assay; format: in vitro ADME
OATP1B3 = target: T4, OATP1B3 (Homo sapiens, UniProt Q9NPD5); test: OATP1B3 uptake substrate assay; format: in vitro ADME
T4 sequence (Q9NPD5 1-702): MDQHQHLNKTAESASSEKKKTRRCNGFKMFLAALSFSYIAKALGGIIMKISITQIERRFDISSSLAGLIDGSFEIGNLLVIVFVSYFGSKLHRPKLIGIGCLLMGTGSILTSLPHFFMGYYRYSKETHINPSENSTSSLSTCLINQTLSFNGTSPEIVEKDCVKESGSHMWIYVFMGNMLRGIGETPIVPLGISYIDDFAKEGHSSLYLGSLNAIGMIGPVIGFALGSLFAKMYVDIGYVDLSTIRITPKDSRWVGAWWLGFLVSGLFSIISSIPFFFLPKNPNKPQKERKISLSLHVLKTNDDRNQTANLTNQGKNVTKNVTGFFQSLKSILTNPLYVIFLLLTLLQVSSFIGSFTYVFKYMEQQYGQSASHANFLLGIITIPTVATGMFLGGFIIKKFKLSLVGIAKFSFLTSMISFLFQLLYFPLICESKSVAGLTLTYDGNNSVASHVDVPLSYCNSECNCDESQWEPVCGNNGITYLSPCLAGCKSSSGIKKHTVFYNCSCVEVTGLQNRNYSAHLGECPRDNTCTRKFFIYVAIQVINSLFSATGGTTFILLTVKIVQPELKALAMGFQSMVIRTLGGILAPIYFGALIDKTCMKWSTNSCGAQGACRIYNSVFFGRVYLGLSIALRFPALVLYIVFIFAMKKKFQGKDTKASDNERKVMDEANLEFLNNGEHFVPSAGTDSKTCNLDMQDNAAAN

MATE2-K = MATE2-K (Homo sapiens, UniProt Q86VL8); test: MATE2-K uptake inhibition assay; format: in vitro ADME; details: at 40 µM
[4] = transporter-expressing vs control cells, 0.04–40 µm

CYP3A4, sequence (P08684 whole entry): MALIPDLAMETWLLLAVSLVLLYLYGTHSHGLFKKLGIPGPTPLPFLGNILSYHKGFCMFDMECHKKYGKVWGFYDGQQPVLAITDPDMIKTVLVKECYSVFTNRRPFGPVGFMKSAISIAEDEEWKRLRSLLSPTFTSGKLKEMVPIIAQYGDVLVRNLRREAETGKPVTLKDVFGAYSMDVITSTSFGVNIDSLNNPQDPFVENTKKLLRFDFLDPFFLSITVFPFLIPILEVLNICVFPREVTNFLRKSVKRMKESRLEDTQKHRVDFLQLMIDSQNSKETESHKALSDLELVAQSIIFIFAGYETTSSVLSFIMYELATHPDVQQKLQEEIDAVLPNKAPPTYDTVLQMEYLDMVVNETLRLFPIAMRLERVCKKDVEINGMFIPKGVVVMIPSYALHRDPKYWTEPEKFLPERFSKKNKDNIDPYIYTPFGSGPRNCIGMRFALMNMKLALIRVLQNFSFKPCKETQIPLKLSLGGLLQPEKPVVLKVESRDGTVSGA
MATE2-K, sequence (Q86VL8 1-566 isoform Q86VL8-3): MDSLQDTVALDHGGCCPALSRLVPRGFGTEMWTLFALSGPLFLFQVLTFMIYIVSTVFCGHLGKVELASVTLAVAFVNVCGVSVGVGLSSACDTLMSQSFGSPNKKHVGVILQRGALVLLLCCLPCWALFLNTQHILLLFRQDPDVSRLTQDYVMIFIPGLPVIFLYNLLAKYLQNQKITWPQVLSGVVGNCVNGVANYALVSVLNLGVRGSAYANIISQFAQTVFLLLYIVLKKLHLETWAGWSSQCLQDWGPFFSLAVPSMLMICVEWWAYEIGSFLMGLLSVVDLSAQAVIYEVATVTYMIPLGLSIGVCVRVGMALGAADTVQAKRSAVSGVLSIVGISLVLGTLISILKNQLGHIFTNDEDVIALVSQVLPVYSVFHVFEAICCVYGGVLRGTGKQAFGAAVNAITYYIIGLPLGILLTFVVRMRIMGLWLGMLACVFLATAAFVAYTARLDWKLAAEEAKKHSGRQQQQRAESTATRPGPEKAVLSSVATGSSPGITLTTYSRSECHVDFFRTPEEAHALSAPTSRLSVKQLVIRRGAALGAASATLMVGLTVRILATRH

Structure (SMILES): N#Cc1ccc(N2N=C3c4ccc(C(=O)N5CCC(O)CC5)nc4CC[C@@H]3[C@@H]2C2CCCC2)cc1Cl [Ocedurenone, ocedurenone]
- interaction with human OAT1 transporter (inhibition) (OAT1 [1]): No interaction
- metabolism in incubations with other recombinant CYP isoenzymes [2]: minor metabolism
- Substrate, OAT3 UPT (OAT3): not likely to be a substrate
- Maximum fold accumulation, OAT3 UPT (OAT3; [4]): < 2
- maximum inhibition of OATP1B1-mediated probe substrate accumulation (OATP1B1; at 40 µM): 72%
- IC50 (OATP1B1; read-out: Inhibition results (IC50), OATP1B1 UPT, uptake assay): 21.9 µM
- metabolism in recombinant CYP3A4 incubation (CYP3A4): Most extensive metabolism
- Substrate, OAT1 UPT (OAT1 [3]): not likely to be a substrate
- Maximum fold accumulation, OAT1 UPT (OAT1 [3]; [4]): 1.1
- Substrate, OATP1B3 UPT (OATP1B3): not likely to be a substrate
- Maximum fold accumulation, OATP1B3 UPT (OATP1B3; [4]): 1.1
- maximum inhibition of MATE2-K-mediated probe substrate accumulation (MATE2-K): 79%
